Assay results: patent US11059830B2, “Compounds that participate in cooperative binding and uses thereof” (Revolution Medicines, Inc., priority 2015, dated 2021)

Columns and labels:
FKBP12 [1] = biological target: T1, FKBP12 (Homo sapiens (Human), UniProt P62942); assay: AlphaLISA FKBP12 binding: inhibition of binding of biotinylated FK506 to FLAG tagged FKBP12; details: read-out: Binding affinity to FKBP12 (by displacement of FK506)
Source text: The binding of compounds of the invention to FKBP12 can be determined using the following protocol.
This protocol utilizes Perkin Elmers AlphaLISA technology platform to detect FKBP binders by measuring the inhibition of binding of biotinylated FK506 to FLAG tagged FKBP12.
10×TBST Buffer (Boston BioProducts IBB-181), Biotinylated FK506 (in-house), FLAG tagged FKBP (in-house); anti-FLAG Donor beads (Perkin Elmer AS103) and Streptavidin Acceptor beads (Perkin Elmer AL125); Compounds in DMSO (in-house), FK506.
Experimental Protocol/Description of Assay: Add 20 uL of 12.5 nM FKBP-FLAG working stock to each well of the 96-well plate. Add 1 uL of test compound (100% DMSO) to each well of the plate using the Janus MTD head and P20 tips (except control wells). Add 1 uL of DMSO to negative control wells and 1 uL of 50 uM FK506 solution to positive control wells. In the dark, add 20 uL of combined Donor/Acceptor beads to each well. Incubate in the dark for 30 minutes at room temperature. In the dark, add 10 uL of 5 nM biotinylated FK506 working stock to each well. Incubate in the dark for 60 minutes at room temperature. Protect plate from light until reading on Biotek Synergy2 Plate Reader; Alphalisa 96-well protocol (680 excitation/615 emission).

HeLa-FKBP12 cells = assay: Biosensor cell permeability assay (FKBP destabilizing mutant, whole cell); type: cell-based; details: 72 hrs
Protocol: Cell permeability of compounds can be determined using the following protocol.
This protocol utilizes a modified FKBP or cyclophilin destabilizing mutant to determine the bioactivity of FKBP binding compounds or cyclophilin binding compounds in whole cell assay.
DMEM, DMEM without Phenol Red, 10% FBS, 1× Sodium Pyruvate, 1× Glutamax. Add 125 ul of media with compound per well.
Experimental Protocol/Description of Assay: Plate HeLa-FKBP12 cells (for FKBP binding compounds) or HeLa-CyclophilinA cells (for cyclophilin binding compounds) and seed overnight at 5k/well (approximately −18 hrs.). Using a multi-channel pipet, take out the old media and add ˜125 ul of new media with compounds. Compounds are diluted using DMEM without Phenol Red, 10% FBS, 1× Sodium Pyruvate, lx Glutamax. Add 125 ul of media with compound per well. Cells are treated with compounds at concentration: 30, 10, 3.33, 1.11, 0.37, 0.12, 0.04 and 0.013 uM. Time points are taken at 72 hrs and plate read using plate reader with excitation/emission: 575/620.
Cell binding/permeability is calculated in fold-change (Total RFU of treated samples/total RFU of DMSO treated samples or total RFU above background (Total RFU minus total RFU of DMSO treated samples).

FKBP12 [2] = biological target: T1, FKBP12; assay: SPR kinetics of Compound 2 and Compound 6 binding to immobilized FKBP12 (Example 8); details: compound to immobilized FKBP12, 25° C.
Protocol: This protocol utilizes Surface Plasmon Resonance (SPR) as a method to determine kinetics (KD, Ka, Kd) for the binding of Compound 2 and Compound 6 (analyte) to immobilized FKBP12 (ligand).
Compound 2 and Compound 6 in 100% DMSO (in-house), 10×HBS-P+ buffer (GE Healthcare BR-1006-71), Assay buffer (1×HBS-P+ buffer, 1% DMSO), 12×HIS tagged FKBP12 (in-house).
(§1) Experiments are performed at 25° C. Stock solution of 12×HIS tagged FKBP12 is diluted to 100 nM in assay buffer (1% DMSO final). Approximately 500-600 RU of FKBP12 is immobilized on one of two flow cells of an activated NTA chip. The second flow cell is not activated as a reference for non-specific interaction of the analyte to the sensor chip. Various concentrations of Compound 2 or Compound 6 (1 nM-1 μM range), serially diluted into the same assay buffer (1% DMSO final), are injected onto the FKBP12 surface and reference surface at a flow rate of 10 μl/min. The surface is regenerated between analyte injections with 350 mM EDTA.
(§2) The BiaEvaluation software program is used for data fitting. All data is reference subtracted against both the reference flow cell and a buffer injection. For kinetic analyses, data is locally fit to a 1:1 interaction model.

[3] = biological target: CEP25011.4 (residues 2134-2231) (Homo sapiens (Human), UniProt P62942+Q9BV73); assay: ITC binding of FKBP12-compound binary complex to CEP250
CEP25011.4 (residues 2134-2231), sequence (Q9BV73 2134-2231): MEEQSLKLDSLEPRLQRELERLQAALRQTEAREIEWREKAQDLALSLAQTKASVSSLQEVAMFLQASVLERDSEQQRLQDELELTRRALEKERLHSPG
CEP25011.4 (residues 2134-2231), sequence (P62942 whole entry, the tested form may be a part): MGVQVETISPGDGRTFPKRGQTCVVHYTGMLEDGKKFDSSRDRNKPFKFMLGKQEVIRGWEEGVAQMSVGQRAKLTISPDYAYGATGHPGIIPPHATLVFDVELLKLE
Protocol: (§3) This protocol utilizes Isothermal Titration Calorimetry (ITC) to directly measure the heat change associated with binding of FKBP12-Compound 2 and FKBP12-Compound 6 binary complexes to CEP250. Measurement of the heat change allows accurate determination of association constants (Ka), reaction stoichiometry (N), and the change in binding enthalpy (ΔH).
(§4) Compound 2 and Compound 6 in 100% DMSO (in-house), Protein Buffer (10 mM HEPES, pH 7.5, 75 mM NaCl, 0.5 mM TCEP), assay buffer (protein buffer+1% DMSO), FKBP12 (in-house), CEP25029.4 (residues 1982-2231) and CEP25011.4 (residues 2134-2231) (in-house).
(§5) MicroCal™ ITC200 (GE Healthcare) Experimental Protocol: FKBP12 stock solution was diluted to 10 μM in assay buffer (1% DMSO final). Compound was added to FKBP12 to 20 μM (1% DMSO final), and binary complex was filled into the reaction cell of the ITC device after 5-10 min pre-incubation time. CEP250 protein stocks were diluted to 50 μM in assay buffer and supplemented with 20 μM compound (1% DMSO final) before being filled into the injection syringe. A control experiment in the absence of compound was also run to determine the heat associated with operational artifacts and the dilution of titrant as it was injected from the syringe into the reaction cell.

[4] = biological target: CEP25029.4 (residues 1982-2231) (Homo sapiens (Human), UniProt P62942+Q9BV73); assay: as above
CEP25029.4 (residues 1982-2231), sequence (Q9BV73 1982-2231): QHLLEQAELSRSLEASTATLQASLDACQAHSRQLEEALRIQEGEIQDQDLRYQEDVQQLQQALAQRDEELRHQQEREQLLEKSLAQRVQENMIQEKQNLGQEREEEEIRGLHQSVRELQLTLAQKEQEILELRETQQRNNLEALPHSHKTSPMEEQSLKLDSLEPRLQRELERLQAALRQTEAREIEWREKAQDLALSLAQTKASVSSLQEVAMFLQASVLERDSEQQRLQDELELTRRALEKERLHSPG
CEP25029.4 (residues 1982-2231), sequence (P62942 whole entry, the tested form may be a part): as the sequence (P62942 whole entry, the tested form may be a part) above
Protocol: as §3, §4, §5

FKBP12 [5] = biological target: T1, FKBP12; assay: SPR binding of compound (analyte) to immobilized FKBP12 (Example 7); details: 25° C., 12×HIS tagged FKBP12 immobilized on NTA chip; read-out: SPR affinity to FKBP12: KD
Protocol: This protocol utilizes Surface Plasmon Resonance (SPR) as a method to determine kinetics (KD, Ka, Kd) for the binding of compound (analyte) to immobilized FKBP12 (ligand).
Compound in 100% DMSO (in-house), 10×HBS-P+ buffer (GE Healthcare BR-1006-71), Assay buffer (1×HBS-P+ buffer, 1% DMSO), 12×HIS tagged FKBP12 (in-house).
as §1, with “compound” for “Compound 2 or Compound 6”
as §2

T1 sequence (P62942 whole entry): as the sequence (P62942 whole entry, the tested form may be a part) above

IC50 (HeLa-FKBP12 cells) [nM]	Structure (SMILES)	IC50 (FKBP12 [1]) [nM]	Kd (FKBP12 [5]) [nM]	also measured
> 1000	CC[C@H](Cc1ccccc1)[C@@H]1/C=C/C/C=C/C[C@@H](C)C(=O)[C@@H](C)[C@@H]2CC[C@@H](C)[C@@](O)(O2)C(=O)C(=O)N2CCCC[C@H]2C(=O)O1 [Compound 9]	785		
	CC[C@H](Cc1ccccc1)[C@@H]1CCCCCC[C@@H](C)[C@H](O)[C@@H](C)[C@@H]2CC[C@@H](C)C(=O)C(O)(O2)C(=O)N2CCCC[C@H]2C(=O)O1 [Compound 6, (2S)-1-((4R,7S)-7-((2R,3S,4R,11 S,12R)-12-benzyl-3,11-dihydroxy-4-methyltetradecan-2-yl)-2-hydroxy-4-methyl-3-oxooxepane-2-carbonyl)piperidine-2-carboxylic acid C-11 lactone]			koff (FKBP12 [2]): 0.0088 s⁻¹; kon (FKBP12 [2]; read-out: Ka): 567000 M⁻¹ s⁻¹; Kd [3]: 80 nM; ΔH ([3]; ITC, FKBP12 10 μM in cell, CEP25011.4 68 μM in syringe, ligand 20 μM, 298 K): -47.78 kJ/mol; ΔG ([3]; ITC, FKBP12 10 μM, CEP25011.4 68 μM, ligand 20 μM, 298 K, ΔG = −RT ln Ka): -40.36 kJ/mol; −T*ΔS ([3]; ITC, FKBP12 10 μM, CEP25011.4 68 μM, ligand 20 μM, 298 K, −TΔS = ΔG − ΔH): 7.41 kJ/mol; Kd [4]: 360 nM; ΔH ([4]; ITC, FKBP12 10 μM in cell, CEP25029.4 118 μM in syringe, ligand 20 μM, 298 K): -58.48 kJ/mol; ΔG ([4]; ITC, FKBP12 10 μM, CEP25029.4 118 μM, ligand 20 μM, 298 K, ΔG = −RT ln Ka): -36.74 kJ/mol; −T*ΔS ([4]; ITC, FKBP12 10 μM, CEP25029.4 118 μM, ligand 20 μM, 298 K, −TΔS = ΔG − ΔH): 21.73 kJ/mol
	CC[C@H](Cc1ccccc1)[C@@H]1/C=C/C/C=C/C[C@@H](C)[C@H](O)[C@@H](C)[C@@H]2CC[C@@H](C)C(=O)C(O)(O2)C(=O)N2CCC[C@H]2C(=O)O1 [Compound 4]	4.8	23.1	
< 1000	CC[C@H](Cc1cccc(O)c1)[C@@H]1/C=C/C/C=C/C[C@@H](C)[C@H](O)[C@@H](C)[C@@H]2CC[C@@H](C)[C@@](O)(O2)C(=O)C(=O)N2CCCC[C@H]2C(=O)O1 [Compound 8]	1.1		
	CC[C@H](Cc1ccccc1)[C@@H]1/C=C/C/C=C/C(=O)[C@@H](C)[C@H](O)[C@@H](C)[C@@H]2CC[C@@H](C)[C@@](O)(O2)C(=O)C(=O)N2CCCC[C@H]2C(=O)O1 [Compound 3]	0.34	1.3	
	CC[C@H](Cc1ccccc1)[C@@H]1CCCCCC(=O)[C@@H](C)[C@H](O)[C@@H](C)[C@@H]2CC[C@@H](C)C(O)(O2)C(=O)C(=O)N2CCCC[C@H]2C(=O)O1 [Compound 10, (S)-1-(2-((2R,3R,6S)-6-((2R,3R,4S,6E,9E,11R,12R)-12-benzyl-3,11-dihydroxy-4-methyl-5-oxotetradeca-6,9-dien-2-yl)-2-hydroxy-3-methyltetrahydro-2H-pyran-2-yl)-2-oxoacetyl)piperidine-2-carboxylic acid C-11 lactone]	0.21		
	CCC(Cc1ccccc1)C1/C=C/C/C=C/CC(C)C(O)C(C)C2CCC(C)C(O)(CC(=O)N3CCCCC3C(=O)O1)O2 (stereo not shown) [Compound 1]	355	71.5	
	CC[C@H](Cc1ccccc1)[C@@H]1/C=C/C=C/CC(=O)[C@@H](C)[C@H](O)[C@@H](C)[C@@H]2CC[C@@H](C)C(=O)C(O)(O2)C(=O)N2CCCC[C@H]2C(=O)O1 [Compound 5]	18.8	7	

Structure (SMILES)	IC50 (HeLa-FKBP12 cells) [nM]	IC50 (FKBP12 [1]) [nM]	Kd (FKBP12 [5]) [nM]	also measured
CC[C@H](Cc1cccc(O)c1)[C@@H]1/C=C/C/C=C/C[C@@H](C)[C@H](O)[C@@H](C)[C@@H]2CC[C@@H](C)C(=O)[C@@](O)(O2)C(=O)N2CCCC[C@H]2C(=O)O1 [Compound 7]	< 1000	0.95		
